According to patent US20040242456A1, “Herbicidal n-alkysulfonamino derivatives” (priority 2001, published 2004):

Legend:
[1] = test system: AMARAN; test: Post-emergence herbicidal action; type: in vivo, Amaranthus; set-up: key: 1=total damage; 9=no action; conditions: 250 g of active ingredient per ha, sprayed at 4- to 6-leaf stage, evaluated after about 18 days; scale of nine ratings, 1 to 4 good to very good action
Procedure: (§1) Monocotyledonous and dicotyledonous test plants are grown in standard soil in plastic pots in a greenhouse and, at the 4- to 6-leaf stage, are sprayed with an aqueous suspension of the test compounds of formula I, prepared from a 25% wettable powder (Example F3, b) according to WO 97/34485 or with an emulsion of the test compounds of formula I, prepared from a 25% emulsifiable concentrate (Example F1, c) according to WO 97/34485, in an amount corresponding to 250 g of active ingredient per ha (500 litres of water per ha). The test plants are then grown on in the greenhouse under optimum conditions. After a test duration of about 18 days, the test is evaluated in accordance with a scale of nine ratings (1=total damage, 9=no action). Ratings of from 1 to 4 (especially from 1 to 3) indicate good to very good herbicidal action.

[2] = test system: PANICU; test: Post-emergence herbicidal action; type: in vivo; set-up: key: 1=total damage; 9=no action; conditions: 250 g of active ingredient per ha, sprayed at 4- to 6-leaf stage, evaluated after about 18 days; scale of nine ratings, 1 to 4 good to very good action
Procedure: as §1

[3] = test system: ABUTIL; test: Post-emergence herbicidal action; type: in vivo, Abutilon; set-up: key: 1=total damage; 9=no action; conditions: 250 g of active ingredient per ha, sprayed at 4- to 6-leaf stage, evaluated after about 18 days; scale of nine ratings, 1 to 4 good to very good action
Procedure: as §1

[4] = test system: CHENOP; test: Post-emergence herbicidal action; type: in vivo, Chenopodium; set-up: key: 1=total damage; 9=no action; conditions: 250 g of active ingredient per ha, sprayed at 4- to 6-leaf stage, evaluated after about 18 days; scale of nine ratings, 1 to 4 good to very good action
Procedure: as §1

[5] = test system: DIGITA; test: Pre-emergence herbicidal action; type: in vivo, Digitaria; set-up: key: 1=total damage; 9=no action; conditions: 250 g of active ingredient per ha, sprayed immediately after sowing, evaluated after 3 weeks; scale of nine ratings, 1 to 4 good to very good action
Procedure: (§2) Monocotyledonous and dicotyledonous test plants are sown in standard soil in plastic pots. Immediately after sowing, the test compounds, in the form of an aqueous suspension (prepared from a 25% wettable powder (Example F3, b) according to WO 97/34485) or in the form of an emulsion (prepared from a 25% emulsifiable concentrate (Example F1, c)), are applied by spraying, in an amount corresponding to 250 g of active ingredient per ha (500 litres of water per ha). The test plants are then grown in a greenhouse under optimum conditions. After a test duration of 3 weeks, the test is evaluated in accordance with a scale of nine ratings (1=total damage, 9=no action). Ratings of from 1 to 4 (especially from 1 to 3) indicate good to very good herbicidal action.

[6] = test system: ECHINO; test: Post-emergence herbicidal action; type: in vivo, Echinochloa; conditions: 250 g of active ingredient per ha, sprayed at 4- to 6-leaf stage, evaluated after about 18 days; scale of nine ratings, 1 to 4 good to very good action
Procedure: as §1

[7] = test system: STELLA; test: Pre-emergence herbicidal action; type: in vivo, Stellaria; set-up: key: 1=total damage; 9=no action; conditions: 250 g of active ingredient per ha, sprayed immediately after sowing, evaluated after 3 weeks; scale of nine ratings, 1 to 4 good to very good action
Procedure: as §2

[8] = test system: DIGITA; test: Post-emergence herbicidal action; type: in vivo, Digitaria; set-up: key: 1=total damage; 9=no action; conditions: 250 g of active ingredient per ha, sprayed at 4- to 6-leaf stage, evaluated after about 18 days; scale of nine ratings, 1 to 4 good to very good action
Procedure: as §1

[9] = test system: EUPHOR; test: Post-emergence herbicidal action; type: in vivo; conditions: 250 g of active ingredient per ha, sprayed at 4- to 6-leaf stage, evaluated after about 18 days; scale of nine ratings, 1 to 4 good to very good action
Procedure: as §1

[10] = test system: CHENOP; test: Pre-emergence herbicidal action; type: in vivo, Chenopodium; set-up: key: 1=total damage; 9=no action; conditions: 250 g of active ingredient per ha, sprayed immediately after sowing, evaluated after 3 weeks; scale of nine ratings, 1 to 4 good to very good action
Procedure: as §2

[11] = test system: SETARI; test: Pre-emergence herbicidal action; type: in vivo, Setaria; set-up: key: 1=total damage; 9=no action; conditions: 250 g of active ingredient per ha, sprayed immediately after sowing, evaluated after 3 weeks; scale of nine ratings, 1 to 4 good to very good action
Procedure: as §2

[12] = test system: AMARAN; test: Pre-emergence herbicidal action; type: in vivo, Amaranthus; set-up: key: 1=total damage; 9=no action; conditions: 250 g of active ingredient per ha, sprayed immediately after sowing, evaluated after 3 weeks; scale of nine ratings, 1 to 4 good to very good action
Procedure: as §2

[13] = test system: ABUTIL; test: Pre-emergence herbicidal action; type: in vivo, Abutilon; set-up: key: 1=total damage; 9=no action; conditions: 250 g of active ingredient per ha, sprayed immediately after sowing, evaluated after 3 weeks; scale of nine ratings, 1 to 4 good to very good action
Procedure: as §2

[14] = test system: PANICU; test: Pre-emergence herbicidal action; type: in vivo; set-up: key: 1=total damage; 9=no action; conditions: 250 g of active ingredient per ha, sprayed immediately after sowing, evaluated after 3 weeks; scale of nine ratings, 1 to 4 good to very good action
Procedure: as §2

[15] = test system: ECHINO; test: Pre-emergence herbicidal action; type: in vivo, Echinochloa; set-up: key: 1=total damage; 9=no action; conditions: 250 g of active ingredient per ha, sprayed immediately after sowing, evaluated after 3 weeks; scale of nine ratings, 1 to 4 good to very good action
Procedure: as §2

[16] = test system: SETARI; test: Post-emergence herbicidal action; type: in vivo, Setaria; conditions: 250 g of active ingredient per ha, sprayed at 4- to 6-leaf stage, evaluated after about 18 days; scale of nine ratings, 1 to 4 good to very good action
Procedure: as §1

Row | Structure (SMILES) | Post-emergence action AMARAN, rating [1] | Post-emergence action PANICU, rating [2] | Post-emergence action ABUTIL, rating [3] | Post-emergence action CHENOP, rating [4] | Pre-emergence action DIGITA, rating [5] | Post-emergence action ECHINO, rating [6] | Pre-emergence action STELLA, rating [7] | Post-emergence action DIGITA, rating [8] | Post-emergence action EUPHOR, rating [9] | Pre-emergence action CHENOP, rating [10] | Pre-emergence action SETARI, rating [11] | Pre-emergence action AMARAN, rating [12] | Pre-emergence action ABUTIL, rating [13] | Pre-emergence action PANICU, rating [14] | Pre-emergence action ECHINO, rating [15] | Post-emergence action SETARI, rating [16]
1 | CCS(=O)(=O)N(Cc1ccccc1)C1=C(C(=O)c2ccc(C(F)(F)F)nc2C)C(=O)C2CCC1C2 (stereo not shown) [Example 1.065] | 2 | 2 | 2 | 1 | 1 | 3 | 1 | 2 | 3 | 2 | 1 | 2 | 1 | 1 | 1 | 5
2 | CCS(=O)(=O)N(CCOC)C1=C(C(=O)c2ccc(C(F)(F)F)nc2C)C(=O)C2CCC1C2 (stereo not shown) [Example 1.013, Ethanesulfonic acid(2-methoxy-ethyl)-[3-(2-methyl-6-trifluoromethyl-pyridine-3-carbonyl)-4-oxo-bicyclo[3.2.1]oct-2-en-2-yl]-amide] | 1 | 1 | 2 | 1 | 1 | 2 | 1 | 2 | 2 | 1 | 1 | 1 | 1 | 1 | 1 | 2
3 | COCCN(C1=C(C(=O)c2ccc(C(F)(F)F)nc2C)C(=O)C2CCC1C2)S(=O)(=O)c1ccccc1 (stereo not shown) [Example 1.027] | – | – | – | – | 2 | – | 9 | – | – | 9 | 2 | 2 | 3 | 2 | 3 | –
4 | COCCN(C1=C(C(=O)c2ccc(C(F)(F)F)nc2C)C(=O)C2CCC1C2)S(C)(=O)=O (stereo not shown) [Example 1.012] | 2 | 2 | 2 | 1 | 1 | 2 | 4 | 2 | 2 | – | 1 | 1 | 1 | 1 | 1 | 2
5 | Cc1nc(C(F)(F)F)ccc1C(=O)C1=C(N(Cc2ccccc2)S(=O)(=O)c2ccccc2)C2CCC(C2)C1=O (stereo not shown) [Example 1.079] | – | – | – | – | 3 | – | 2 | – | – | 2 | 6 | 3 | 4 | 1 | 2 | –
6 | COCCN(C1=C(C(=O)c2ccc(C(F)(F)F)nc2C)C(=O)C(C)(C)C(=O)C1(C)C)S(C)(=O)=O [Example 1.001] | 2 | 1 | 1 | 1 | 1 | 2 | 4 | 1 | 2 | 1 | 2 | 1 | 1 | 1 | 1 | 2
7 | CCS(=O)(=O)N(CCOC)C1=C(C(=O)c2ccc(C(F)(F)F)nc2C)C(=O)C(C)(C)C(=O)C1(C)C [Example 1.007] | 2 | 1 | 1 | 1 | 1 | 2 | 1 | 1 | 2 | 1 | 1 | 1 | 1 | 1 | 1 | 2
8 | Cc1nc(C(F)(F)F)ccc1C(=O)C1=C(N(Cc2ccccc2)S(=O)(=O)C(C)C)C2CCC(C2)C1=O (stereo not shown) [Example 1.067] | – | – | – | – | 1 | – | 1 | – | – | 1 | 1 | 2 | 2 | 1 | 2 | –
